Laboratory results from patent publication US9695155B2, “Herbicidal substituted pyrimidinyloxy benzene compounds” (E. I. DU PONT DE NEMOURS AND COMPANY, priority 2013, dated 2017).

How the values were obtained:
[1] = test system: wild mustard; test: Test D preemergence; format: in vivo, Sinapis arvensis
Method in brief: (§1)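 Greenhouse herbicide screen. Sowing into silt loam for preemergence application; foliar application to 2–18 cm seedlings in potting mix for postemergence. 0–100 visual control rating after 7–21 d.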

[2] = test system: blackgrass; test: Test D preemergence; format: in vivo, Alopecurus myosuroides
Method in brief: as §1

[3] = test system: wild radish; test: Test D postemergence; format: in vivo, Raphanus raphanistrum
Excerpt: (§2) Seeds of plant species selected from bluegrass (annual bluegrass, Poa annua), blackgrass (Alopecurus myosuroides), canarygrass (littleseed canarygrass, Phalaris minor), chickweed (common chickweed, Stellaria media), galium (catchweed bedstraw, Galium aparine), bromegrass, downy (downy bromegrass, Bromus tectorum), field poppy (Papaver rhoeas), field violet (Viola arvensis), green foxtail (Setaria viridis), deadnettle (henbit deadnettle, Lamium amplexicaule), Italian ryegrass (Lolium multiflorum), kochia (Kochia scoparia), lambsquarters (Chenopodium album), oilseed rape (Brassica napus), pigweed (Amaranthus retroflexus), chamomile (scentless chamomile, Matricaria inodora), Russian thistle (Salsola kali), speedwell (bird's-eye speedwell, Veronica persica), spring barley (Hordeum vulgare), spring wheat (Triticum aestivum), wild buckwheat (Polygonum convolvulus), wild mustard (Sinapis arvensis), wild oat (Avena fatua), wild radish (Raphanus raphanistrum), windgrass (Apera spica-venti), winter barley (Hordeum vulgare), and winter wheat (Triticum aestivum) were planted into a silt loam soil and treated preemergence with test chemicals formulated in a non-phytotoxic solvent mixture which included a surfactant.
(§3) At the same time, these species were planted in pots containing Redi-Earth® planting medium (Scotts Company, 14111 Scottslawn Road, Marysville, Ohio 43041) comprising spaghnum peat moss, vermiculite, wetting agent and starter nutrients and treated with postemergence applications of the test chemicals formulated in the same manner. Plants ranged in height from 2 to 18 cm (1- to 4-leaf stage). Treated plants and controls were maintained in a controlled growth environment for 7 to 21 days after which time all species were compared to controls and visually evaluated. Plant response ratings, summarized in Table D, are based on a scale of 0 to 100 where 0 is no effect and 100 is complete control. A dash (-) response means no test result.

[4] = test system: wild radish; test: Test D preemergence; format: in vivo, Raphanus raphanistrum
Method in brief: as §1

[5] = test system: chickweed; test: Test D preemergence; format: in vivo, Stellaria media
Excerpt: as §2, §3

[6] = test system: galium; test: Test D preemergence; format: in vivo, Galium aparine
Excerpt: as §2, §3

[7] = test system: Italian ryegrass; test: Test D preemergence; format: in vivo, Lolium multiflorum
Excerpt: as §2, §3

[8] = test system: field poppy; test: Test D preemergence; format: in vivo, Papaver rhoeas
Excerpt: as §2, §3

[9] = test system: chamomile; test: Test D postemergence; format: in vivo, Matricaria inodora
Method in brief: as §1

[10] = test system: windgrass; test: Test D preemergence; format: in vivo, Apera spica-venti
Excerpt: as §2, §3

[11] = test system: windgrass; test: Test D postemergence; format: in vivo, Apera spica-venti
Excerpt: as §2, §3

[12] = 16 g ai/ha, scale 0 (no effect) to 100 (complete control)
[13] = 31 g ai/ha, scale 0 to 100 (0 no effect, 100 complete control)
[14] = 62 g ai/ha, scale 0 to 100 (0 no effect, 100 complete control)
[15] = 125 g ai/ha, scale 0 to 100 (0 no effect, 100 complete control)
[16] = 31 g ai/ha, scale 0 (no effect) to 100 (complete control)

`FCc1cccc(Oc2ncc(Cl)cn2)c1-n1cc(I)cn1` [Compound 245] was tested, and the “Plant response rating, Mustard, Wild” value [1, 12] was 80, the “Plant response rating, Mustard, Wild” value ([1]; 31 g ai/ha, scale 0-100) was 80 and the “Plant response rating, Mustard, Wild” value ([1]; 62 g ai/ha, scale 0-100) was 85. The “Plant response rating, Mustard, Wild” value ([1]; 125 g ai/ha, scale 0-100) was 100, the “Plant response rating, Blackgrass” value [2, 12] was 0 and the “Plant response rating, Blackgrass” value ([2]; 31 g ai/ha, scale 0-100) was 0. The “Plant response rating, Blackgrass” value ([2]; 62 g ai/ha, scale 0-100) was 10, the “Plant response rating, Blackgrass” value ([2]; 125 g ai/ha, scale 0-100) was 65 and the “Plant response rating, Radish, Wild” value ([3]; 16 g ai/ha, scale 0-100) was 35. The “Plant response rating, Radish, Wild” value [3, 13] was 45, the “Plant response rating, Radish, Wild” value [3, 14] was 55 and the “Plant response rating, Radish, Wild” value [3, 15] was 85. The “Plant response rating, Radish, Wild” value [4, 12] was 0, the “Plant response rating, Radish, Wild” value [4, 16] was 0 and the “Plant response rating, Radish, Wild” value ([4]; 125 g ai/ha, scale 0-100) was 85. The “Plant response rating, Chickweed” value [5, 12] was 55, the “Plant response rating, Chickweed” value ([5]; 31 g ai/ha, scale 0-100) was 85 and the “Plant response rating, Chickweed” value ([5]; 62 g ai/ha, scale 0-100) was 100. The “Plant response rating, Chickweed” value ([5]; 125 g ai/ha, scale 0-100) was 100, the “Plant response rating, Galium” value [6, 12] was 0 and the “Plant response rating, Galium” value ([6]; 31 g ai/ha, scale 0-100) was 0. For the same compound, the “Plant response rating, Galium” value ([6]; 62 g ai/ha, scale 0-100) was 5, the “Plant response rating, Galium” value ([6]; 125 g ai/ha, scale 0-100) was 85 and the “Plant response rating, Ryegrass, Italian” value [7, 12] was 15. For the same compound, the “Plant response rating, Ryegrass, Italian” value [7, 16] was 15, the “Plant response rating, Ryegrass, Italian” value ([7]; 125 g ai/ha, scale 0-100) was 40 and the “Plant response rating, Field Poppy” value [8, 12] was 100. For the same compound, the “Plant response rating, Field Poppy” value ([8]; 31 g ai/ha, scale 0-100) was 100, the “Plant response rating, Field Poppy” value ([8]; 62 g ai/ha, scale 0-100) was 100 and the “Plant response rating, Field Poppy” value ([8]; 125 g ai/ha, scale 0-100) was 100. For the same compound, the “Plant response rating, Chamomile” value ([9]; 16 g ai/ha, scale 0-100) was 30, the “Plant response rating, Chamomile” value [9, 13] was 30 and the “Plant response rating, Chamomile” value [9, 14] was 45. The “Plant response rating, Chamomile” value [9, 15] was 40, the “Plant response rating, Windgrass” value [10, 12] was 5 and the “Plant response rating, Windgrass” value [10, 16] was 15. The “Plant response rating, Windgrass” value ([10]; 125 g ai/ha, scale 0-100) was 60, the “Plant response rating, Windgrass” value ([11]; 16 g ai/ha, scale 0-100) was 10 and the “Plant response rating, Windgrass” value [11, 13] was 15. For the same compound, the “Plant response rating, Windgrass” value [11, 14] was 15 and the “Plant response rating, Windgrass” value [11, 15] was 25.
